Assay results published in US20250109134A1 (Ascentage Pharma (Suzhou) Co., Ltd., priority 2022, published 2025).

Assay: Polymorph screening (suspension, anti-solvent, gas-liquid diffusion, slow volatilization methods), resulting form by XRPD
Format: physicochemical
Conditions: for Crystalline form results 25° C. / Crystalline form results 50° C.: suspension, 2 days, from crystalline form B
Method: The sample was quickly centrifuged (6000 rpm, 5 min) to remove a supernatant. The resulting precipitate was subjected to vacuum drying (40° C., −0.1 MPa) for 20 h, followed by physical characterization.
The resulting precipitate was subjected to vacuum drying at 40° C. for 20 h, followed by physical characterization.
No clear solution was obtained, and the sample was still undissolved after 1 mL of solvent was added. Then, 500 μL of poor solvent (acetone, ACN, MeOH, EtOAc, THE, or […]) was added, and 40 mg of the sample was added to perform an experiment by a suspension method. All suspension samples were stirred at 50° C. for 2 days and quickly centrifuged (6000 rpm, 5 min) to remove a supernatant. The resulting solid was subjected to vacuum drying at 40° C. for 20 h, followed by physical characterization.
The compound of formula I was subjected to polymorph screening with DCM as a good solvent and with MeOH, EtOH, THE, or EA as an anti-solvent, and was dissolved in both DCM and MeOH systems. The suspension sample was stirred for 2 days and quickly centrifuged to remove a supernatant. The resulting precipitate was subjected to vacuum drying at 25° C. for 20 h, followed by physical characterization.
The resulting precipitate was subjected to vacuum drying at room temperature for 20 h, followed by physical characterization.
The resulting precipitate was subjected to vacuum drying for 20 h.
Sonication was performed for 1 min to obtain a clear solution, which was filtered through a 0.22 μm filter membrane and aliquoted into seven 8 mL glass flasks. An anti-solvent was added until precipitation occurred. The sample was stirred at room temperature for 1 day and quickly centrifuged. The resulting solid precipitate was subjected to vacuum drying.
Then, an anti-solvent was added until precipitation occurred, and the mixture was stirred at room temperature overnight and quickly centrifuged (6000 rpm, 6 min) to remove a supernatant. The resulting precipitate was subjected to vacuum drying for 20 h.
Then, the solution was added to a 20 mL glass flask containing 2 mL of an anti-solvent (shown in the following table), and the flask was tightly capped at room temperature and placed in a fume hood for diffusion. When precipitation occurred, the flask was taken out, and the resulting precipitate was subjected to vacuum drying for 20 h.
The flask placed in a fume hood at room temperature for diffusion. When precipitation occurred, the flask was taken out, and the resulting precipitate was subjected to vacuum drying for 20 h.
The mixture was stirred at 50° C. or room temperature for 6 days and quickly centrifuged (6000 rpm, […]) to remove a supernatant. The resulting precipitate was subjected to vacuum drying for 20 h.

CC(C)N1Cc2cc(C(F)(F)F)ncc2-c2cnc(NCc3c(F)ccc4c3CCO4)n3cnc(c23)C1=O.CS(=O)(=O)O
Crystalline form results (anti-solvent method, good solvent DCM/MeOH = 2-1 (20 mg/mL), anti-solvent Methyl acetate, room temperature overnight): No precipitation
Crystalline form results (anti-solvent method, good solvent DMF (50 mg/mL), anti-solvent Acetonitrile, room temperature overnight): Crystalline form A
Crystalline form results (anti-solvent method, good solvent DMF (50 mg/mL), anti-solvent Dimethyl tetrahydrofuran, room temperature overnight): No precipitation
Crystalline form results (anti-solvent method, good solvent DMF (50 mg/mL), anti-solvent Methyl acetate, room temperature overnight): Dissociation into a free base
Crystalline form results (anti-solvent method, good solvent DMF (50 mg/mL), anti-solvent n-heptane, room temperature overnight): No precipitation
Crystalline form results (anti-solvent method, good solvent MeOH (10 mg/mL), anti-solvent Acetonitrile, room temperature overnight): No precipitation
Crystalline form results (anti-solvent method, good solvent MeOH (10 mg/mL), anti-solvent Dimethyl tetrahydrofuran, room temperature overnight): No precipitation
Crystalline form results (anti-solvent method, good solvent MeOH (10 mg/mL), anti-solvent Methyl acetate, room temperature overnight): No precipitation
Crystalline form results (anti-solvent method, good solvent MeOH (10 mg/mL), anti-solvent n-heptane, room temperature overnight): No precipitation
Crystalline form results (anti-solvent method, good solvent NMP (50 mg/mL), anti-solvent Acetonitrile, room temperature overnight): Presumably an NMP solvate
Crystalline form results (anti-solvent method, good solvent NMP (50 mg/mL), anti-solvent Dimethyl tetrahydrofuran, room temperature overnight): Presumably an NMP solvate
Crystalline form results (anti-solvent method, good solvent NMP (50 mg/mL), anti-solvent Ethyl acetate, room temperature overnight): Dissociation into a free base
Crystalline form results (anti-solvent method, good solvent NMP (50 mg/mL), anti-solvent Methyl acetate, room temperature overnight): Presumably an NMP solvate
Crystalline form results (anti-solvent method, good solvent NMP (50 mg/mL), anti-solvent Tert-butyl methyl ether, room temperature overnight): Presumably an NMP solvate
Crystalline form results (anti-solvent method, good solvent NMP (50 mg/mL), anti-solvent n-heptane, room temperature overnight): Presumably an NMP solvate
Crystalline form results (gas-liquid diffusion method, good solvent DMF (50 mg/mL), anti-solvent 2-MeTHF, room temperature): No precipitation
Crystalline form results (gas-liquid diffusion method, good solvent DMF (50 mg/mL), anti-solvent ACN, room temperature): No precipitation
Crystalline form results (gas-liquid diffusion method, good solvent DMF (50 mg/mL), anti-solvent EtOAc, room temperature): No precipitation
Crystalline form results (gas-liquid diffusion method, good solvent DMF (50 mg/mL), anti-solvent FA, room temperature): No precipitation
Crystalline form results (gas-liquid diffusion method, good solvent DMF (50 mg/mL), anti-solvent Heptane, room temperature): No precipitation
Crystalline form results (gas-liquid diffusion method, good solvent DMF (50 mg/mL), anti-solvent MTBE, room temperature): No precipitation
Crystalline form results (gas-liquid diffusion method, good solvent MeOH (10 mg/mL), anti-solvent 2-MeTHF, room temperature): No precipitation
Crystalline form results (gas-liquid diffusion method, good solvent MeOH (10 mg/mL), anti-solvent ACN, room temperature): No precipitation
Crystalline form results (gas-liquid diffusion method, good solvent MeOH (10 mg/mL), anti-solvent FA, room temperature): No precipitation
Crystalline form results (gas-liquid diffusion method, good solvent MeOH (10 mg/mL), anti-solvent Heptane, room temperature): No precipitation
Crystalline form results (gas-liquid diffusion method, good solvent NMP (50 mg/mL), anti-solvent 2-MeTHF, room temperature): Possibly an NMP solvate
Crystalline form results (gas-liquid diffusion method, good solvent NMP (50 mg/mL), anti-solvent ACN, room temperature): Possibly an NMP solvate
Crystalline form results (gas-liquid diffusion method, good solvent NMP (50 mg/mL), anti-solvent EtOAc, room temperature): Dissociation into a free base
Crystalline form results (gas-liquid diffusion method, good solvent NMP (50 mg/mL), anti-solvent FA, room temperature): Possibly an NMP solvate
Crystalline form results (gas-liquid diffusion method, good solvent NMP (50 mg/mL), anti-solvent Heptane, room temperature): Possibly an NMP solvate
Crystalline form results (gas-liquid diffusion method, good solvent NMP (50 mg/mL), anti-solvent MTBE, room temperature): Possibly an NMP solvate
Crystalline form results (slow volatilization method, solvent DCM/MeOH = 2-1, room temperature): Crystalline form B
Crystalline form results (slow volatilization method, solvent EtOH/EA = 2-1, room temperature): Crystalline form A
Crystalline form results (slow volatilization method, solvent EtOH, room temperature): Crystalline form B
Crystalline form results (slow volatilization method, solvent MeOH/FA = 2-1, room temperature): Crystalline form B
Crystalline form results (slow volatilization method, solvent MeOH, room temperature): Crystalline form A
Crystalline form results (solvent ACN—H2O 1-1, initial crystalline form A of methanesulfonate salt): Crystalline form A
Crystalline form results (solvent H2O, initial crystalline form A of methanesulfonate salt): Crystalline form A
Crystalline form results (solvent MeOH—H2O 1-1, initial crystalline form A of methanesulfonate salt): Crystalline form A

CC(C)N1Cc2cc(C(F)(F)F)ncc2-c2cnc(NCc3c(F)ccc4c3CCO4)n3cnc(c23)C1=O [crystalline form B]
Crystalline form results 25° C. (solvent ACN): Crystalline form A
Crystalline form results 50° C. (solvent ACN): Crystalline form A
Crystalline form results 25° C. (solvent ACN—H2O = 1-1): Crystalline form A
Crystalline form results 50° C. (solvent ACN—H2O = 1-1): Crystalline form A
Crystalline form results 25° C. (solvent Acetone-H2O = 1-2): Crystalline form B
Crystalline form results 50° C. (solvent Acetone-H2O = 1-2): Crystalline form B
Crystalline form results 25° C. (solvent Acetone): Crystalline form B
Crystalline form results 50° C. (solvent Acetone): Crystalline form B
Crystalline form results 50° C. (solvent EtOAc): Crystalline form B
Crystalline form results 25° C. (solvent EtOH): Crystalline form B
Crystalline form results 50° C. (solvent EtOH): Crystalline form A
Crystalline form results 25° C. (solvent EtOH—H2O 1-1): Crystalline form B
Crystalline form results 50° C. (solvent EtOH—H2O 1-1): Crystalline form A
Crystalline form results 25° C. (solvent EtOH—H2O = 3-1): Crystalline form B
Crystalline form results 50° C. (solvent EtOH—H2O = 3-1): Crystalline form A
Crystalline form results 25° C. (solvent H2O): Crystalline form B
Crystalline form results 50° C. (solvent H2O): Crystalline form B
Crystalline form results 25° C. (solvent Heptane): Crystalline form B
Crystalline form results 25° C. (solvent MTBE): Crystalline form E
Crystalline form results 50° C. (solvent MTBE): Crystalline form G
Crystalline form results 25° C. (solvent MeOH): Crystalline form A
Crystalline form results 50° C. (solvent MeOH): Crystalline form A
Crystalline form results 25° C. (solvent MeOH—H2O 1-1): Crystalline form F
Crystalline form results 50° C. (solvent MeOH—H2O 1-1): Crystalline form A
Crystalline form results 25° C. (solvent MeOH—H2O = 3-1): Crystalline form A
Crystalline form results 25° C. (solvent THF): Crystalline form B
Crystalline form results 50° C. (solvent THF): Crystalline form B
Crystalline form results 25° C. (solvent Toluene): Toluene solvate
